# In patent publication US8691865B2 (AbbVie Inc., priority 2008, dated 2014):
# Where two headings read alike, the source gives them in different places.
# How the values were obtained:
# Sprague Dawley rats [1] = experiment: Analgesic effect against neuropathic pain, Bennett model (chronic constriction injury); type: in vivo; conditions: Rattus norvegicus, 1 h; 30 mg/kg po; mechanical allodynia 60 minutes after administration; CCI rats; read-out: % MPE
# Protocol: (iii) In Vivo Data—Determination of Analgesic Effect Against Neuropathic Pain—Bennett Model
# Animals were prepared for testing, by use of a surgical procedure that induces neuropathic pain in one paw. IACUC guidelines for rodent survival surgery are followed. All surgical procedures are conducted on a clean, uncluttered surgical station. The area is wiped with a 70% ethanol solution before and after use. All instruments are sterilized by either autoclave or chemical sterilant (such as 2% glutaraldehyde >10 hr). Surgeons wear sterile gloves (for the initial procedure), clean lab coat or scrubs, hairnet or cap, and a half-mask respirator (when not working under a hood). Surgeons thoroughly wash their hands prior to donning sterile gloves. Gloves are disinfected in-between animals by cleansing with povidone iodine, chlorhexidine or 70% alcohol for at least 30 seconds. If multiple surgeries are performed, the instruments are cleaned and sterilized between procedures with hot glass beads (>10 seconds). To prevent thermal or chemical burns, the instruments are cooled by rinsing in sterile saline before use.
# To minimize post-operative dehydration/maintain blood volume during the surgery, warmed sterile saline or Lactate Ringers solution at 10-15 mL/kg is administered subcutaneously immediately before or after surgery. This facilitates better renal function and presumably anesthesia product excretion post surgery. For all surgical procedures, anesthesia is induced with 4-5% isoflurane. Anesthesia is be maintained during surgery with 1-3% isoflurane. Following induction, the surgical site is carefully shaved and the exposed area is aseptically prepared with povidone-iodine scrub solution and 70% ethanol 2-3 times.
# After site sterilization and anesthetic procedures outline above are completed, a 1.5 cm incision is made at the mid-thigh level to expose the biceps femoris and gluteous superficialis (right side), which are then separated by blunt dissection. The common sciatic nerve is exposed, isolated, and loosely ligated by four 5-0 chromic gut ligatures with <1 mm spacing between each. The surgical site is closed in layers—muscle is closed with 6.0 absorbable sutures, and the skin closed with wound clips. Animals are allowed to recover on a warming plate and are returned to their home cages when fully ambulatory. Animals are not be used for testing until at least 10 days following surgery.
# Filament strengths used are: 0.4, 0.6, 1.0, 2, 4, 6, 8, and 15 g. […] Filaments are applied perpendicular to the mid-plantar paw surface with enough force to cause slight buckling and held in place for 6-8 seconds. Positive responses include an abrupt withdrawal of the paw from the stimulus or flinching behavior immediately following removal of the stimulus. The maximum force applied will be 15 g. […] All compounds were orally administered in 10% dimethyl sulfoxide/polyethylene glycol at a volume of 2.0 mL/kg, and mechanical allodynia was determined 60 minutes following compound administration. Data are reported as log g values and the percentage of maximum possible effect (% MPE) is calculated using log g values with the formula: % MPE=(log [observed PWT in grams]−log [mean PWT vehicle])/(log [15]−log [mean PWT vehicle])*100 All statistical procedures are run on log g values.
# human Cav2.2 = human Cav2.2 (Homo sapiens, UniProt Q00975); experiment: Assessment of calcium channel activity using FLIPR (Ca2+ influx in IMR32 cells); type: cell-based
# Procedure, shortened: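 IC50 values derive from nonlinear sigmoidal fitting of percent inhibition, relative to inhibitor-free activity, of Ca2+ influx read by FLIPR. Cells were IMR32 human neuroblastoma, plated at 1−1.2×10^5 per well and grown 48 h at 37 °C.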
# Sprague Dawley rats [2] = experiment: Capsaicin induced secondary mechanical hyperalgesia model; type: in vivo; conditions: po, 1 h, read-out: % inhibition @ 30 mg/kg p.o.; 30 mg/kg p.o. 60 minutes before testing; SMH measured 180 minutes after capsaicin; rat
# Protocol: (ii) In Vivo Data—Capsaicin Induced Secondary Mechanical Hyperalgesia Model:
# Sprague Dawley rats were briefly restrained, and capsaicin was administered at 10 μg in 10 μL of vehicle by intraplantar injection into the center of the right hind paw. Secondary mechanical hyperalgesia (SMH) was measured at the heel away from the site of injection 180 minutes following capsaicin exposure. Compounds and gabapentin (positive control), were administered p.o. 60 minutes before testing (2 hours after capsaicin) or i.p. 30 minutes before testing (2.5 hours after capsaicin). SMH was measured using calibrated von Frey filaments (Stoelting, Woodale, Ill.). Following the 1 hour habituation in the testing room, rats were moved to individual plexiglass chambers that sit on top of a wire mesh to allow for access for stimulation of the plantar surface of the hind paws. Rats were allowed to acclimate to the new chambers for 15 minutes before the onset of testing. The paw withdrawal threshold was determined by increasing and decreasing stimulus intensity (force: g) and calculated using Dixon's up-down method (Chaplan, S. R.; Bach, F. W.; Pogrel, J. W.; Chung, J. M.; Yaksh, T. L.; J. Neuroscience Methods 1994, 53(1), 55-63.). The filaments (maximum force of 15.0 g) were held in place for 8 seconds or until there was a withdrawal response from the mechanical stimulation.
# Sequence of human Cav2.2 (Q00975 whole entry): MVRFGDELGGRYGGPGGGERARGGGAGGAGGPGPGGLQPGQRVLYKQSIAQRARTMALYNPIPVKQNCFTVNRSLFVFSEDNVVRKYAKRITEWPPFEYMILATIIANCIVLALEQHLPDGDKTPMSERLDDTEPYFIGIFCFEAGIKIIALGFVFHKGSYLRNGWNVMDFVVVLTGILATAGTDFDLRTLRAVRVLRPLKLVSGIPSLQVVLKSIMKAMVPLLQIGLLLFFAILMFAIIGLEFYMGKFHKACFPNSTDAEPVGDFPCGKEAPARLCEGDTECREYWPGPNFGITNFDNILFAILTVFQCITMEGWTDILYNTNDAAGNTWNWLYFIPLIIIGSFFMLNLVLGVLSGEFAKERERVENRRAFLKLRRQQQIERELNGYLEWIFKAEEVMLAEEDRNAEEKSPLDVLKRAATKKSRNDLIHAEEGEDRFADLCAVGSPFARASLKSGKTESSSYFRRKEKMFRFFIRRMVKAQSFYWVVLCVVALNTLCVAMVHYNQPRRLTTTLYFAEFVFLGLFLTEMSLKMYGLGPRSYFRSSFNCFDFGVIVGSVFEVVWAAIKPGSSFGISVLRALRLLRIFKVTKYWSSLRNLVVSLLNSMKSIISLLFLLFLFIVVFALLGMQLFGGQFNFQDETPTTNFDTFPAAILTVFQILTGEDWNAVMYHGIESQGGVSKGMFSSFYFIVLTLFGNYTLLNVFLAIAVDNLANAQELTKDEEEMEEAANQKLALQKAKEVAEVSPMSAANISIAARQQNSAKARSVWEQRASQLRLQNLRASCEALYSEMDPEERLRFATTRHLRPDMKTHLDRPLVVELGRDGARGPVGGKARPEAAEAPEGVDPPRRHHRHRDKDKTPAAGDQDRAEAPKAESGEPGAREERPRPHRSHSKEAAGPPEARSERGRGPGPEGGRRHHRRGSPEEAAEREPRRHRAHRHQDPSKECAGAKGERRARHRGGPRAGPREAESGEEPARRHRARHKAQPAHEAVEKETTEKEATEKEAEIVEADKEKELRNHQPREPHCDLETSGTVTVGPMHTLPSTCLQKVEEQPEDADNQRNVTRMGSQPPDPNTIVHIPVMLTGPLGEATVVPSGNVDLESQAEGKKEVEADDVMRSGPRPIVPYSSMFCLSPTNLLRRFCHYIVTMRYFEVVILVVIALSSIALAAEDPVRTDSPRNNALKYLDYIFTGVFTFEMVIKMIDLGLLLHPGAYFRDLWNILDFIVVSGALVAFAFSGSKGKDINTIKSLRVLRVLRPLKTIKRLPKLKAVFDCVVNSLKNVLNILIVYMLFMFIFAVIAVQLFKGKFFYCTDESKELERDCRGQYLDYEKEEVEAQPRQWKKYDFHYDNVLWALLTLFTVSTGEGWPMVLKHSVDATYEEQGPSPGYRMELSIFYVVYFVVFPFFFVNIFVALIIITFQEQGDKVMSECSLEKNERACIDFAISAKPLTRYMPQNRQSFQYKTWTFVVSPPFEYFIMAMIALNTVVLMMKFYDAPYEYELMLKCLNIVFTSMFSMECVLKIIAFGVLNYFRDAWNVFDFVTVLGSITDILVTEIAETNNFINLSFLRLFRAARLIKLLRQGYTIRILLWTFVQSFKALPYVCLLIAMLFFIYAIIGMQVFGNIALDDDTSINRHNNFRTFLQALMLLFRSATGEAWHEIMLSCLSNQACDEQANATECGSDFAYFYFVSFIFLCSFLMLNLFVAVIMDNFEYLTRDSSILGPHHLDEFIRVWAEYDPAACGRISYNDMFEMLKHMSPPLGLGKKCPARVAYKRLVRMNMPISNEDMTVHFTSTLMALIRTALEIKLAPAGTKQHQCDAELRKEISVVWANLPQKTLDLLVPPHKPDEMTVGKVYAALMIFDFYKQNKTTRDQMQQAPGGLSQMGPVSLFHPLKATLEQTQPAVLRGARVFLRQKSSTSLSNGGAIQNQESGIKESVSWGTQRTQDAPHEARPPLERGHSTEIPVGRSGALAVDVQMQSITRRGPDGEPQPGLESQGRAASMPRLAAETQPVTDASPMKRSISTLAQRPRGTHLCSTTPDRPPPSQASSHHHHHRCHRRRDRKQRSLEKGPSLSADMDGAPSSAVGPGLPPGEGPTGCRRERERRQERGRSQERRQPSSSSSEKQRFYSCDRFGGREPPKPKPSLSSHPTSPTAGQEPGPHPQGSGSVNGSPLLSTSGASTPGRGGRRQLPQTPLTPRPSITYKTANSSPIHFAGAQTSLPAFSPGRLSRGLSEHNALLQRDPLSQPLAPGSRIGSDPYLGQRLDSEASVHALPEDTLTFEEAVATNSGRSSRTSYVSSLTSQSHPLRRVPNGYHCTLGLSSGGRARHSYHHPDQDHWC
# Sequence of human Cav2.2 (P54289 25-956 partner limits assumed): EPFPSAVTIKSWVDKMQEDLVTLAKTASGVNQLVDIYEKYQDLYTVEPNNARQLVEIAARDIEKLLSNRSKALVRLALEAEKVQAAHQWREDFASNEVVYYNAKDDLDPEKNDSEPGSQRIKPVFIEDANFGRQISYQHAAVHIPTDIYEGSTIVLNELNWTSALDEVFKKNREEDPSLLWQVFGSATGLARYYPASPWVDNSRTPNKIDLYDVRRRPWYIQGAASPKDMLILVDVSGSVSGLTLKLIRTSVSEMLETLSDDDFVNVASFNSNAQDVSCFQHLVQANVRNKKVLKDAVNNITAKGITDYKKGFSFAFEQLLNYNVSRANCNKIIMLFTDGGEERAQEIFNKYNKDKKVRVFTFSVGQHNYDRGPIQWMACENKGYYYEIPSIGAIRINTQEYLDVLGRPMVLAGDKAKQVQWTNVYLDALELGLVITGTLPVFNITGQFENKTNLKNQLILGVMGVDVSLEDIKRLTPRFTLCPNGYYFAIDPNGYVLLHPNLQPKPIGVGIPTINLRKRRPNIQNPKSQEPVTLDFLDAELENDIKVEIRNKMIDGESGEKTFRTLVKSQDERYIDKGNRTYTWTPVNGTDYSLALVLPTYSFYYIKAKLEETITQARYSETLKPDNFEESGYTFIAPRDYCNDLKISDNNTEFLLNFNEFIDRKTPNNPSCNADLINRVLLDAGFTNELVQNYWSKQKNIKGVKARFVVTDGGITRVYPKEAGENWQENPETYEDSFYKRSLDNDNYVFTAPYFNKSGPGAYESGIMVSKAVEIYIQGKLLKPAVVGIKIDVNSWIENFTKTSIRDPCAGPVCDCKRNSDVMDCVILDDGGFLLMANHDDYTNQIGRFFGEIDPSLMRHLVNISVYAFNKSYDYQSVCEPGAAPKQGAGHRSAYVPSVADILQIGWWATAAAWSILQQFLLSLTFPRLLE
# Sequence of human Cav2.2 (P54289 957-1103 partner limits assumed): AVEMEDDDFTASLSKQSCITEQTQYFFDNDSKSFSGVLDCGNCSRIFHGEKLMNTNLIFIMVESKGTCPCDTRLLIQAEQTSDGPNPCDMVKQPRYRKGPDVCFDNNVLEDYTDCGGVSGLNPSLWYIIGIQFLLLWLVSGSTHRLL
# Sequence of human Cav2.2 (P54284 whole entry partner): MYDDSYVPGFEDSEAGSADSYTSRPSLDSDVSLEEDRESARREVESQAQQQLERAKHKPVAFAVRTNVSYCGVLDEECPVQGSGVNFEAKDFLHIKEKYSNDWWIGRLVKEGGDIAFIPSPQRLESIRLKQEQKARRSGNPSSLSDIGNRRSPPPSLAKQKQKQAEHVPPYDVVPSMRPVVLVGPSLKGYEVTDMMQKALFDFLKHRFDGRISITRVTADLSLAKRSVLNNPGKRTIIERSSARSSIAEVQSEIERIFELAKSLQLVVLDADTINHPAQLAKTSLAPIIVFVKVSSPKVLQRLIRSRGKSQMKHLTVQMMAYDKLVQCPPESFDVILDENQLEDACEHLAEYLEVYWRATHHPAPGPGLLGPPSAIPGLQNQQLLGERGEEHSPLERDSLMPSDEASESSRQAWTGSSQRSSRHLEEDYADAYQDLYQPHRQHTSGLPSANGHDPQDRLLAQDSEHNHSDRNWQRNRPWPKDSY
SMILES,IC50 (human Cav2.2),"IC50 (human Cav2.2; read-out: IC50 (μM) or percent inhibition (* indicates 3 minute incubation, otherwise 60 minute), IC50, 60 minute pre-incubation with compound, IMR32 cells, 80 mM KCl depolarization)",inhibition in vivo at 30 mg/kg (Sprague Dawley rats [1]),inhibition in vivo at 30 mg/kg (Sprague Dawley rats [2])
"O=C(N[C@H]1CC[C@@H]2CN(c3cccc(C(F)(F)F)n3)C[C@@H]21)C1(O)CCCC1 [Example 573, 1-hydroxy-N-{(3aR,4S,6aS)-2-[6-(trifluoromethyl)pyridin-2-yl]octahydrocyclopenta[c]pyrrol-4-yl}cyclopentanecarboxamide]",1.68 µM,,,57%
"CN[C@@H](CC(C)C)C(=O)N[C@H]1CC[C@@H]2CN(c3ccc(C(F)(F)F)cc3)C[C@@H]21 [Example 608, N^2-methyl-N-{(3aR,4S,6aS)-2-[4-(trifluoromethyl)phenyl]octahydrocyclopenta[c]pyrrol-4-yl}-L-leucinamide]",1.65 µM,,79%,
"O=C(N[C@H]1CC[C@@H]2CN(c3cccc(C(F)(F)F)n3)C[C@@H]21)[C@@H]1C[C@@H](F)CN1 [Example 592, (4R)-4-fluoro-N-{(3aR,4S,6aS)-2-[6-(trifluoromethyl)pyridin-2-yl]octahydrocyclopenta[c]pyrrol-4-yl}-L-prolinamide]",4.5 µM,,,54%
"CCC[C@H](NC)C(=O)N[C@H]1CC[C@@H]2CN(c3ccc(C(F)(F)F)cn3)C[C@@H]21 [Example 599, N^2-methyl-N-{(3aR,4S,6aS)-2-[5-(trifluoromethyl)pyridin-2-yl]octahydrocyclopenta[c]pyrrol-4-yl}-L-norvalinamide]",4.43 µM,,,32%
"CN[C@@H](CC(C)(C)C)C(=O)N1C[C@H]2CC[C@H](NC(=O)C(c3ccc(F)cc3)c3ccc(F)cc3)[C@H]2C1 [Example 461, N-[(3aR,4S,6aS)-2-(N,4-dimethyl-L-leucyl)octahydrocyclopenta[c]pyrrol-4-yl]-2,2-bis(4-fluorophenyl)acetamide]",1.46 µM,,,43%
"O=C(N[C@H]1CC[C@@H]2CN(c3cccc(C(F)(F)F)n3)C[C@@H]21)[C@@H]1CCCCN1 [Example 597, (2S)-N-{(3aR,4S,6aS)-2-[6-(trifluoromethyl)pyridin-2-yl]octahydrocyclopenta[c]pyrrol-4-yl}piperidine-2-carboxamide]",1.3 µM,,,54%
"CC(C)(C)[C@H](O)C(=O)N[C@H]1CC[C@@H]2CN(c3cccc(C(F)(F)F)n3)C[C@@H]21 [Example 580, (2S)-2-hydroxy-3,3-dimethyl-N-{(3aR,4S,6aS)-2-[6-(trifluoromethyl)pyridin-2-yl]octahydrocyclopenta[c]pyrrol-4-yl}butanamide]",1.88 µM,,5%,
"CC(C)C[C@H](NS(=O)(=O)CC(C)C)C(=O)N[C@@H]1CC[C@H]2CN(Cc3cccc(C(F)(F)F)c3)C[C@H]21 [Example 173, N^2-(isobutylsulfonyl)-N^1-{(3aS,4R,6aR)-2-[3-(trifluoromethyl)benzyl]octahydrocyclopenta[c]pyrrol-4-yl}-L-leucinamide]",,1.81 µM,,

# The next lines start with results.
IC50 (human Cav2.2),"IC50 (human Cav2.2; read-out: IC50 (μM) or percent inhibition (* indicates 3 minute incubation, otherwise 60 minute), IC50, 60 minute pre-incubation with compound, IMR32 cells, 80 mM KCl depolarization)",SMILES,inhibition in vivo at 30 mg/kg (Sprague Dawley rats [1]),inhibition in vivo at 30 mg/kg (Sprague Dawley rats [2])
3.62 µM,,"CN[C@@H](CC(C)C)C(=O)N[C@H]1CC[C@@H]2CN(c3ccc(C(F)(F)F)nc3)C[C@@H]21 [Example 735, N^2-methyl-N-{(3aR,4S,6aS)-2-[6-(trifluoromethyl)pyridin-3-yl]octahydrocyclopenta[c]pyrrol-4-yl}-L-leucinamide]",60%,
2.71 µM,,"O=C(N[C@H]1CC[C@@H]2CN(c3cccc(OC(F)(F)F)c3)C[C@@H]21)[C@@H]1C[C@@H](F)CN1 [Example 627, (4R)-4-fluoro-N-{(3aR,4S,6aS)-2-[3-(trifluoromethoxy)phenyl]octahydrocyclopenta[c]pyrrol-4-yl}-L-prolinamide]",54%,
1.08 µM,,"CN[C@@H](CC(C)C)C(=O)N[C@H]1CC[C@@H]2CN(c3cccc(C(F)F)c3)C[C@@H]21 [Example 729, N-{(3aR,4S,6aS)-2-[3-(difluoromethyl)phenyl]octahydrocyclopenta[c]pyrrol-4-yl}-N^2-methyl-L-leucinamide]",85%,
4.91 µM,,"CN[C@@H](CC(C)C)C(=O)N[C@H]1CC[C@@H]2CN(c3ccc(OC(F)(F)F)cc3)C[C@@H]21 [Example 624, N^2-methyl-N-{(3aR,4S,6aS)-2-[4-(trifluoromethoxy)phenyl]octahydrocyclopenta[c]pyrrol-4-yl}-L-leucinamide]",85%,
1.42 µM,,"CN[C@@H](CC(C)C)C(=O)N[C@H]1CC[C@@H]2CN(c3cccc(OC(F)(F)F)c3)C[C@@H]21 [Example 625, N^2-methyl-N-{(3aR,4S,6aS)-2-[3-(trifluoromethoxy)phenyl]octahydrocyclopenta[c]pyrrol-4-yl}-L-leucinamide]",42%,
2.85 µM,,"CN[C@@H](CC(C)C)C(=O)N[C@@H]1CC[C@H]2CN(c3ccc(OC(F)(F)F)cc3)C[C@H]21 [Example 739, N^2-methyl-N-{(3aS,4R,6aR)-2-[4-(trifluoromethoxy)phenyl]octahydrocyclopenta[c]pyrrol-4-yl}-L-leucinamide]",63%,
0.91 µM,,"Fc1ccc2[nH]c(CN[C@H]3CC[C@@H]4CN(c5cccc(C(F)(F)F)n5)C[C@@H]43)cc2c1 [Example 613, (3aR,4S,6aS)-N-[(5-fluoro-1H-indol-2-yl)methyl]-2-[6-(trifluoromethyl)pyridin-2-yl]octahydrocyclopenta[c]pyrrol-4-amine]",61%,
1.3 µM,,"CCC[C@H](NC)C(=O)N[C@H]1CC[C@@H]2CN(c3cccc(OC(F)(F)F)c3)C[C@@H]21 [Example 718, N^2-methyl-N-{(3aR,4S,6aS)-2-[3-(trifluoromethoxy)phenyl]octahydrocyclopenta[c]pyrrol-4-yl}-L-norvalinamide]",29%,
2.53 µM,,"CN[C@@H](CC(C)C)C(=O)N[C@H]1CC[C@@H]2CN(c3nccc(C(F)(F)F)n3)C[C@@H]21 [Example 722, N^2-methyl-N-{(3aR,4S,6aS)-2-[4-(trifluoromethyl)pyrimidin-2-yl]octahydrocyclopenta[c]pyrrol-4-yl}-L-leucinamide]",8%,
1.16 µM,,"FC(F)(F)c1cccc(N2C[C@H]3CC[C@H](NCc4coc(-c5ccc(Cl)cc5)n4)[C@H]3C2)n1 [Example 741, (3aR,4S,6aS)-N-{[2-(4-chlorophenyl)-1,3-oxazol-4-yl]methyl}-2-[6-(trifluoromethyl)pyridin-2-yl]octahydrocyclopenta[c]pyrrol-4-amine]",,
3.17 µM,,"O=S(=O)(N[C@H]1CC[C@@H]2CN(c3cccc(C(F)(F)F)n3)C[C@@H]21)c1ccccc1F [Example 703, 2-fluoro-N-{(3aR,4S,6aS)-2-[6-(trifluoromethyl)pyridin-2-yl]octahydrocyclopenta[c]pyrrol-4-yl}benzenesulfonamide]",,
